Measured values: publication PMC8745330, “Aromatic Sulfonamides including a Sulfonic Acid Tail: New Membrane Impermeant Carbonic Anhydrase Inhibitors for Targeting Selectively the Cancer-Associated Isoforms” (International Journal of Molecular Sciences, 2021)
“And” between values parts separate entries of the source, which are not always exact repeats. Identical values can stand only once.

Key:
[1] = target: T1, hCA I (Homo sapiens, UniProt P00915); test: stopped flow CO2 hydrase assay, CA I; format: biochemical; conditions: mean from 3 different assays, errors ±5–10%
T1 construct: made in house
Protocol: (§1) An Applied Photophysics stopped-flow instrument was used for assaying the CA catalyzed CO2 hydration activity. Phenol red (at a concentration of 0.2 mM) was used as an indicator, working at the absorbance maximum of 557 nm, with 20 mM HEPES (pH 7.5) as buffer, and 20 mM Na2SO4 (for maintaining constant the ionic strength), following the initial rates of the CA-catalyzed CO2 hydration reaction for a period of 10–100 s. The CO2 concentrations ranged from 1.7 to 17 mM for the determination of the kinetic parameters and inhibition constants. For each inhibitor, at least six traces of the initial 5–10% of the reaction were used for determining the initial velocity. The uncatalyzed rates were determined in the same manner and subtracted from the total observed rates. Stock solutions of inhibitor (0.1 mM) were prepared in distilled–deionized water, and dilutions up to 0.01 nM were done thereafter with the assay buffer. Inhibitor and enzyme solutions were preincubated together for 45 min at room temperature prior to assay in order to allow for the formation of the E–I complex. The inhibition constants were obtained by non-linear least-squares methods using PRISM 3 and the Cheng–Prusoff equation, as reported earlier, representing the mean from at least three different determinations. […] All CA isoforms were recombinant ones obtained in-house, as reported earlier.

[2] = target: T2, hCA XII (Homo sapiens, UniProt O43570); test: stopped flow CO2 hydrase assay, CA XII; format: biochemical; conditions: for Selectivity index (SI) CA I/CA XII / Selectivity index (SI) CA II/CA XII: ratio between KI values; for Ki: stopped flow CO2 hydrase assay, mean from 3 different assays, errors ±5–10%
T2 construct: made in house
Protocol: as §1

[3] = target: T3, hCA IV (Homo sapiens, UniProt P22748); test: stopped flow CO2 hydrase assay, CA IV; format: biochemical; conditions: mean from 3 different assays, errors ±5–10%
T3 construct: made in house
Protocol: as §1

[4] = Caco-2 cell viability by MTS; format: cell-based; conditions: human; Caco-2 cells, 50 μM, 2 h of exposure, MTS; data not shown
Protocol: (§2) The colorectal adenocarcinoma cell line Caco-2 was purchased from American Tissue Type Culture Collection (Manassas, VA, USA) and cultured in Dulbecco’s modified Eagle’s medium (DMEM) (Thermo Fisher Scientific, Rodano, Milan, Italy) with 20% fetal bovine serum (FBS) (Thermo Fisher Scientific, Rodano, Milan, Italy) and 100 U/mL penicillin–streptomycin (Thermo Fisher Scientific, Rodano, Milan, Italy) in 5% CO2 at 37 °C. Cell viability was determined by MTS after 2 h of exposure to the aliphatic sulfonate CAIs at 50 µM concentration, as previously described.

[5] = target: T4, hCA IX (Homo sapiens, UniProt Q16790); test: stopped flow CO2 hydrase assay, CA IX; format: biochemical; conditions: for Selectivity index (SI) CA I/CA IX / Selectivity index (SI) CA II/CA IX: ratio between KI values; for Ki: stopped flow CO2 hydrase assay, mean from 3 different assays, errors ±5–10%
T4 construct: made in house
Protocol: as §1

[6] = target: T5, hCA II (Homo sapiens, UniProt P00918); test: stopped flow CO2 hydrase assay, CA II; format: biochemical; conditions: mean from 3 different assays, errors ±5–10%
T5 construct: made in house
Protocol: as §1

[7] = tested on: Caco-2 cells; test: Caco-2 cell viability by MTS; format: cell-based; conditions: 50 µM
Protocol: as §2

T3 sequence (P22748 19-312): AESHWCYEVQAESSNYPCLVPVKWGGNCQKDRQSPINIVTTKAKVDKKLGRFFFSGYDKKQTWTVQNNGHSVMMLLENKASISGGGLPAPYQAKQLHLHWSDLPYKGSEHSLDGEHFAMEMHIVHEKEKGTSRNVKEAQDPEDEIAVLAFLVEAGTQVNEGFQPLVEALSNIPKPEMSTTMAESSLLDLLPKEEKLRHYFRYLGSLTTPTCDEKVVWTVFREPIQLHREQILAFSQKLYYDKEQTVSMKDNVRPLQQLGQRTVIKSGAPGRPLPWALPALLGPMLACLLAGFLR
T2 sequence (O43570 25-354): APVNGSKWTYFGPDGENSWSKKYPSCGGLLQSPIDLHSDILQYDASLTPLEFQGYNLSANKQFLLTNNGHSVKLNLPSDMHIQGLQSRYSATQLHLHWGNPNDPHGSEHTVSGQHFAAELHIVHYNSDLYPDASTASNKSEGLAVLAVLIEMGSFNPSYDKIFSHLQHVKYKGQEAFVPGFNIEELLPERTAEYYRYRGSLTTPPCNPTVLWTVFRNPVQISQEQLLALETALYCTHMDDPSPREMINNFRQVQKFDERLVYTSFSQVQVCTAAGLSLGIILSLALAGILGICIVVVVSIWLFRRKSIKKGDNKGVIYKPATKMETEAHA
T1 sequence (P00915 whole entry): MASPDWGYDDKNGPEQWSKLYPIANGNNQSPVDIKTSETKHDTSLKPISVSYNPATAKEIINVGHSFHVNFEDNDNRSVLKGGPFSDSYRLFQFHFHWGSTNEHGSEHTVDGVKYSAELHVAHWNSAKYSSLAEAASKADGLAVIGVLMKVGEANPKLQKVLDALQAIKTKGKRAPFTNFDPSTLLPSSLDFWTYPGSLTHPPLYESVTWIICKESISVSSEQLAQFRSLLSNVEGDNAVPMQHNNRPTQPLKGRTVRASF

| Ki [1] | Selectivity index (SI) CA I/CA XII [2] | Selectivity index (SI) CA II/CA XII [2] | Ki [2] | melting point | Ki [3] | Selectivity index (SI) CA I/CA IX [5] | Selectivity index (SI) CA II/CA IX [5] | Ki [5] | Ki [6] | Compound | viability at 2 h, 50 µM [4] | cell viability [7] |
| --- | --- | --- | --- | --- | --- | --- | --- | --- | --- | --- | --- | --- |
| 622 nM | 9.2 | 0.11 | 67.6 nM | > 300 °C | 63.5 nM | 9.1 | 0.11 | 68.2 nM | 7.4 nM | NS(=O)(=O)c1ccc(NC(=O)NCc2cn(CCCS(=O)(=O)[O-])nn2)cc1.[Na+] [Compound 34, Sodium 3-(4-((3-(4-sulfamoylphenyl)ureido)methyl)-1H-1,2,3-triazol-1-yl)propane-1-sulfonate] | > 95% |  |
| 458 nM | 48 and 48.2 | 0.45 | 9.5 nM | > 300 °C | 56.3 nM | 143 | 1.3 | 3.2 nM | 4.3 nM | NS(=O)(=O)c1ccc(C(=O)NCc2cn(CCCS(=O)(=O)[O-])nn2)cc1.[Na+] [Compound 33, Sodium 3-(4-((4-sulfamoylbenzamido)methyl)-1H-1,2,3-triazol-1-yl)propane-1-sulfonate] | > 95% |  |
| 2910 nM | 855 | 107 | 3.4 nM |  | 883 nM | 36 | 4.5 | 79.9 nM | 364 nM | Sodium 3-(4-(((4-sulfamoylphenyl)amino)methyl)-1H-1,2,3-triazol-1-yl)butane-1-sulfonate [Compound 43] |  | > 95% |
| > 10000 nM | >534 | 3.4 | 18.7 nM | > 300 °C | 244 nM | >41 | 0.26 | 242 nM | 63.4 nM | CC(=O)Nc1cc(S(N)(=O)=O)ccc1OCc1cn(CCCS(=O)(=O)[O-])nn1.[Na+] [Compound 39, Sodium 3-(4-((2-acetamido-4-sulfamoylphenoxy)methyl)-1H-1,2,3-triazol-1-yl)propane-1-sulfonate] | > 95% |  |
| 150 nM | 3.4 | 0.44 | 43.1 nM |  | 408 nM | 17 | 2.2 | 8.6 nM | 18.8 nM | Sodium 3-(4-(4-sulfamoylphenyl)-1H-1,2,3-triazol-1-yl)butane-1-sulfonate [Compound 41] |  | > 95% |
| 51.6 nM | 1.1 | 0.11 | 49 nM | > 300 °C | 36.7 nM | 0.95 | 0.10 | 54.4 nM | 5.4 nM | NS(=O)(=O)c1ccc(NC(=O)Nc2ccc(OCc3cn(CCCS(=O)(=O)[O-])nn3)cc2)cc1.[Na+] [Compound 38, Sodium 3-(4-((4-(3-(4-sulfamoylphenyl)ureido)phenoxy)methyl)-1H-1,2,3-triazol-1-yl)propane-1-sulfonate] | > 95% |  |
